{"source": "paper PMC3709979", "about": "(PLoS ONE, 2013)", "key": {"[1]": {"test_system": "estrogen-responsive alkaline phosphatase in Ishikawa cells", "assay": "Induction of estrogen-responsive alkaline phosphatase (AP) in Ishikawa cells", "conditions": "96 h; for EC50: Homo sapiens, Ishikawa", "description": "Ishikawa cells (5×10^4 cells/well) were pre-incubated in 96 well plates in estrogen-free medium for 24 h. Test samples dissolved in DMSO, were added at different concentrations and the DMSO concentration was kept lower than 0.1%. […] Plates were incubated at 37°C for 96 h. […] The maximum slope of the kinetic curve for every experiment well was calculated."}, "Tff1 mRNA in T47D cells": {"test_system": "Tff1 mRNA in T47D cells", "assay": "Tff1 mRNA induction in T47D cells (qRT-PCR)", "format": "cell-based", "conditions": "8-PN 100 nM, LigF 5 µM, LigC 5 µM, 6 h, relative to DMSO", "protocol": "Quantitative real-time polymerase chain reaction (qRT-PCR) was used to examine the modulation of the Tff1 induction following treatment of T47D cells with the extracts and the related compounds. Experiments were performed four independent times in triplicates. T47D cells (4×10^4 cells/mL) were preincubated in estrogen-free media for 72 h. […] Total RNA was isolated using the TRIzol Plus RNA purification kit (Invitrogen) and quantitated by UV analysis at 260 nm. cDNA synthesis was performed using qScript cDNA synthesis kit (Quanta Biosceiences) in a total volume of […], containing 4 µL qScript reaction mixture (5X), 1 µL qScript RT, 10 µL nuclease-free water, and 5 µL of RNA sample. The reaction was carried out for 5 min at 22°C, followed by 42°C for 30 min and a 5 min incubation step at 85°C. The PCR and subsequent analyses were performed using the ABI StepOne Plus RT-PCR system (Applied Biosystems). Quantitation was performed using the TaqMan technology of Applied Biosystems. Tff1 was evaluated using a predeveloped gene expression primer/probe set (Applied Biosystems' Assay on Demand). Briefly, the PCR reaction mixture was prepared in a total volume of 20 µL, containing 1 µL 20X TagMan Gene Expression Assay, 10 µL 2X TaqMan Gene Expression Master Mix, 4 µL cDNA template, and 5 µL RNase-free water. The reaction mixture was incubated at 50°C for 2 min followed by 10 min at 95°C. Polymerase chain reactions were performed in triplicate and consisted of 40 cycles with 15 s denaturing step at 95°C and 1 min annealing/extending step at 60°C each. The fluorescence signal was measured during the last 30 s of the annealing/extension phase. Following analysis, a fluorescence threshold value was set and threshold cycle (Ct) values were determined. […] The final results were expressed as a fold induction, where the levels of Tff1 observed in the DMSO-treated samples was defined as one."}, "[2]": {"test_system": "estrogen responsive element (ERE)-luciferase in MCF-7 cells", "assay": "ERE-luciferase induction in MCF-7 cells", "format": "cell-based", "conditions": "24 h; for ERE-luciferase induction in MCF-7 cells (in words): isolated compounds tested at 0.1 µM and 1 µM", "protocol": "The Dual-Luciferase Reporter Assay System protocol from Promega (Madison, WI) was used to evaluate the activation of ERs through interaction with ERE at the promoter of estrogen responsive genes, resulting in the expression of the fused luciferase reporter. Briefly, MCF-7 cells grown in phenol-red free medium for 48 h, were trypsinized and re-suspended in serum-free medium at 1×10^7 cells/mL followed by a 10 min incubation at room temperature with pERE (3 µg/mL) obtained from Dr. V. C. Jordan, Northwestern University, and pRL-TK (Promega) (1 µg/mL) in a 4 mm gap cuvette before electroporation at 950 µF and 250 V using the Gene Pulser Xcell (BioRad Laboratories, Hercules, CA). Transfected cells were diluted in serum containing medium and plated in 24-well plates (2×10^5 cells/well). After 24 h, the cells were washed with PBS and treated with two concentrations of the crude extracts (2 µg/mL and 10 µg/mL) and two concentrations of the isolated compounds (0.1 µM and 1 µM), for an additional 24 h. […] Cell lysates (20 µL) were placed in white Costar 96-well plates, before the injection of Luciferase Assay reagent (100 µL) followed by a 12 s read by a FLUOstar OPTIMA (BMG Lab Tech, Offenburg, Germany). To quench the firefly luciferase expression and activation of the renilla expression, Stop & Glo reagent (100 µL) was injected followed by a 12 s read. In order to exclude the errors in transfection efficiency, average read out of the luciferase activity was normalized to the average associated pRL-TK read outs (renilla activity). The results were converted into fold induction by normalizing to DMSO."}, "human recombinant ERβ [3]": {"biological_target": "T1, human recombinant ERβ (Homo sapiens, UniProt Q92731)", "T1 sequence (Q92731 whole entry)": "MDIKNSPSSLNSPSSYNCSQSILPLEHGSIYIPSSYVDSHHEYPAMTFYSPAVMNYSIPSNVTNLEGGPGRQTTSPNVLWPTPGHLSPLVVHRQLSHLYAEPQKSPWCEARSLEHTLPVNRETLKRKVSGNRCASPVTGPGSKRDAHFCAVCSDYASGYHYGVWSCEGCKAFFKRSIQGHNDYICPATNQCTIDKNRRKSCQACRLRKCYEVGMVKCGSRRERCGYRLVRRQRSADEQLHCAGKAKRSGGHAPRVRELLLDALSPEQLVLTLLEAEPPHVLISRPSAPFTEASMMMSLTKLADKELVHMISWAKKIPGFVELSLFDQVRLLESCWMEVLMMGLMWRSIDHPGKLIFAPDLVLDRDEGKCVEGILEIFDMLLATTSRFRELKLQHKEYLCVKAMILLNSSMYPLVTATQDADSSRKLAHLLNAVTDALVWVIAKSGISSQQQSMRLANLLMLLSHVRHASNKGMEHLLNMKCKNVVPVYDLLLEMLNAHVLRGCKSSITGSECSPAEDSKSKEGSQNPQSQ", "set-up": "purchased Invitrogen (Grand Island, NY); method as in J. Agric. Food Chem. 2005, 53, 6246–6253", "conditions": "read-out: IC50 ERβ; isolated compounds; ref J. Agric. Food Chem. 2005, 53, 6246–6253; cited from earlier work"}, "ERα [4]": {"biological_target": "T2, ERα (Homo sapiens, UniProt P03372)", "T2 sequence (P03372 1-595)": "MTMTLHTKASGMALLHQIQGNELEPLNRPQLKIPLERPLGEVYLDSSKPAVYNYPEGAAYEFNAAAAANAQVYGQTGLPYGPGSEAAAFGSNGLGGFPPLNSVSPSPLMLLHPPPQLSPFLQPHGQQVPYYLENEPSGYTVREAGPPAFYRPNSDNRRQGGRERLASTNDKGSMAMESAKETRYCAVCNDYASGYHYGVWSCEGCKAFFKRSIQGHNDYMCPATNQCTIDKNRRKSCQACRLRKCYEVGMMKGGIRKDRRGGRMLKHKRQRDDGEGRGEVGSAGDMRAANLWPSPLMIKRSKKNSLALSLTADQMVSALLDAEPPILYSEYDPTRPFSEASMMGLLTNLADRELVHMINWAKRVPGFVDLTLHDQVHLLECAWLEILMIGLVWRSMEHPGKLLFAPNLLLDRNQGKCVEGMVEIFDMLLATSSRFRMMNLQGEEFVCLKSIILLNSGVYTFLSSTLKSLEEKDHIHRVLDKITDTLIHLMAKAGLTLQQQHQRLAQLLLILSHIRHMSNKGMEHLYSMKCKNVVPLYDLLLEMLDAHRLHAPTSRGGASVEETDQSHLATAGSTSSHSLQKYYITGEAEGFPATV", "assay": "biochemical", "description": "(§1) To correct for non-specific binding, a control containing all the added components except for the hot mix was considered. The incubation was carried out at room temperature for 2 h before 100 µL of 50% hydroxyapatite slurry (HAPS) was added. The tubes were incubated on ice for 15 min with vortexing every 5 min. The appropriate ER wash buffer was added (1 mL), and the tubes were vortexed before centrifuging at 10000×g for 5 min. The supernatant was discarded, and this wash step was repeated three times. The HAPS pellet containing the ligand-receptor complex was re-suspended in 200 µL of ethanol and transferred to scintillation vials. An additional 200 µL of ethanol was used to rinse the centrifuge tube."}, "human recombinant ERβ [5]": {"biological_target": "T1, human recombinant ERβ", "assay": "biochemical", "description": "as §1"}, "[6]": {"assay": "Isomerization of isoliquiritigenin to liquiritigenin under bioassay conditions (LC-MS/LC-UV)", "format": "physicochemical", "protocol": "To evaluate this conversion and better define the compounds responsible for the observed estrogenic activity, LC-MS monitoring of the isomerization of these active principles in the cell-based assays was performed in parallel to every bioassay. One set of plates was considered for time 0, when there was no treatment and another set was considered for the final harvesting day for every experimental condition. The media exposed to cells were collected and extracted by adding sodium acetate buffer (100 mM, pH 5), followed by liquid-liquid extraction by water-saturated ethyl acetate."}, "Ishikawa cells": {"test_system": "Ishikawa cells", "assay": "Cytotoxicity in cell culture assays", "format": "cell-based", "conditions": "AP assay, reduction in the estrogenic response", "source_text": "The Ishikawa cell line was provided by Dr. R. B. Hochberg (Yale University, New Haven, CT) and was maintained in Dulbecco's Modified Eagle Medium (DMEM/F12) containing 1% sodium pyruvate, 1% nonessential amino acids (NEAA), 1% glutamax-1, 0.05% insulin, and 10% heat-inactivated FBS [32], [33], [34]. […] Two days before treating the cells, the medium was replaced with phenol red-free DMEM/F12 medium containing charcoal/dextran-stripped FBS and supplements. […] However, alkaline phosphatase was not inducible in ECC1 cells obtained from ATCC. Despite this controversy, we will keep the conventional name, Ishikawa, for this cell line throughout this paper. The MCF-7 cell line was purchased from ATCC. […] Two days prior to treating the cells, the medium was replaced with phenol red-free RPMI 1640 medium containing charcoal/dextran-stripped FBS with acetone-washed activated charcoal (100mg/mL) at 4°C for 30 min and centrifuged at 4000 rpm for 15 min at 4°C. This step was repeated in triplicate. Extracts and compounds were not toxic to cells at the applied concentrations, under these experimental conditions. DMSO concentrations for all cell culture assays were below 0.1%."}, "ERα [7]": {"biological_target": "T2, ERα", "assay": "Pulsed ultrafiltration LC-MS screening for ERα ligands", "format": "binding", "set-up": "purchased Invitrogen (Grand Island, NY)", "conditions": "crude MeOH extract 150 µg/ml, 1 h room temperature, denatured ER control", "protocol": "A screening assay based on ultrafiltration mass spectrometry was used to identify the ligands of ER present in licorice crude extracts. Briefly, 150 µg/ml of the methanol crude extract was incubated for 1 h at room temperature with 50 pmol of ERα or ERβ in binding buffer consisting of 50 mM Tris-HCl (pH 7.5), 10% glycerol, 50 mM KCl, and 1 mM ethylenediaminetetraacetic acid (EDTA) in a total volume of 50 µL. Identical control incubations in which denatured ER was substituted for active ER was used to correct for nonspecific binding of compounds to the ultrafiltration membrane and holder. After incubation, each mixture was filtered through a Microcon (Millipore, Bedford, MA) YM-30 centrifugal filter containing a regenerated cellulose ultrafiltration membrane with a 30000 MW cutoff and washed three times with 200 µL aliquots of ammonium acetate buffer (pH 7.5) at 4°C to remove the unbound compounds. The bound ligands were released by adding 400 µL of methanol/water (90∶10; v/v) followed by centrifugation at 10000×g for 10 min. […] Aliquots (10 µL) were analyzed using LC-MS, which consisted of a reverse phase separation on a Shimadzu (Kyoto, Japan) Shim-Pack XR-ODS III C18 (1.6 µm, 2.0 mm ×50 mm) column and mass spectrometric analysis on a Shimadzu LCMS- IT-TOF mass spectrometer. […]"}, "ERα [8]": {"biological_target": "T2, ERα", "description": "as §1"}, "[9]": {"conditions": "read-out: AP induction Ishikawa cells EC50"}}, "note": "Where “and” joins values, the source holds several entries; their conditions need not be identical. Equal entries are not always repeated. Entries after “also recorded” stand apart in the source; their conditions may differ. Where two headings read alike, the source gives them in different places.", "data": [{"smiles": "COc1cc(O)c(CC=C(C)C)c(O)c1C(=O)/C=C/c1ccc(O)cc1", "note": "[XH, xanthohumol]", "values": [{"measurement": "AP induction Ishikawa cells EC50", "setting": "[1]; isolated compounds, n = 9", "result": "inactive"}, {"measurement": "Tff1 mRNA induction in T47D cells", "setting": "Tff1 mRNA in T47D cells", "result": "no Tff1 activity"}, {"measurement": "ERE-luciferase induction in MCF-7 cells (in words)", "setting": "[2]", "result": "did not show any induction of ERE-luciferase"}]}, {"smiles": "C[C@]12CC[C@@H]3c4ccc(O)cc4CC[C@H]3[C@@H]1CC[C@@H]2O", "note": "[17β-estradiol, reference compound]", "values": [{"measurement": "EC50", "setting": "[1]; [9]", "result": "0.19 ± 0.05", "unit": "nM"}]}, {"smiles": "CC(C)=CCc1c(O)cc(O)c2c1O[C@H](c1ccc(O)cc1)CC2=O", "note": "[8-PN, 8-prenylnaringenin]", "values": [{"measurement": "IC50", "setting": "human recombinant ERβ [3]", "result": "1700 ± 100", "unit": "nM"}, {"measurement": "EC50", "setting": "[1]; read-out: AP induction Ishikawa cells EC50, as given in text, 96 h", "result": 6.6, "unit": "nM"}, {"measurement": "EC50", "setting": "[1]; read-out: AP induction Ishikawa cells EC50, isolated compounds, 96 h, n = 9", "result": "6.65 ± 1.4", "unit": "nM"}, {"measurement": "ERE-luciferase induction in MCF-7 cells (in words)", "setting": "[2]", "result": "showed induction of ERE-luciferase"}]}, {"smiles": "O=C(/C=C/c1ccc(O)cc1)c1ccc(O)cc1O", "note": "[LigC, isoliquiritigenin]", "values": [{"measurement": "IC50", "setting": "ERα [4]", "result": "16000 ± 1000", "unit": "nM"}, {"measurement": "IC50", "setting": "human recombinant ERβ [5]", "result": "7800 ± 100", "unit": "nM"}, {"measurement": "EC50", "setting": "[1]; [9]", "result": "2700 ± 200", "unit": "nM"}, {"measurement": "isomerization of LigC to LigF", "setting": "[6]; ER binding buffer, 2 h at room temperature, LC-UV", "result": "did not show any isomerization of LigC to LigF; also recorded: did not show a conversion of LigC to LigF"}, {"measurement": "isomerization of LigC to LigF", "setting": "[6]; cell media of AP assay, 96 h with Ishikawa cells at 37°C, LC-MS", "result": "significant reduction in the LigC content and a corresponding increase in LigF formation; also recorded: mostly converted to LigF"}, {"measurement": "isomerization of LigC to LigF", "setting": "[6]; cell media of mRNA induction assay, 6 h with T47D cells at 37°C, LC-MS", "result": "did not show a significant formation of LigF from LigC; also recorded: the conversion was limited"}, {"measurement": "concentrations with cytotoxic effects", "setting": "Ishikawa cells", "result": "above 7.5 µM"}, {"measurement": "Tff1 mRNA induction in T47D cells", "setting": "Tff1 mRNA in T47D cells", "result": "induced Tff1, significantly"}]}, {"smiles": "O=C1C[C@@H](c2ccc(O)cc2)Oc2cc(O)ccc21", "note": "[LigF, liquiritigenin]", "values": [{"measurement": "IC50", "setting": "ERα [4]", "result": "> 200000", "unit": "nM"}, {"measurement": "binding to ERα in PUF-MS screening", "setting": "ERα [7]", "result": "bound to ERα and ERβ"}, {"measurement": "EC50", "setting": "[1]; [9]", "result": "3400 ± 400", "unit": "nM"}, {"measurement": "Maximum AP fold induction Ishikawa cells", "setting": "[1]; maximum efficacy", "result": "83 fold and 83.1±3.4 fold"}, {"measurement": "Tff1 mRNA induction in T47D cells", "setting": "Tff1 mRNA in T47D cells", "result": "lower than that of 8-PN (0.1 µM), but the difference was not significant"}, {"measurement": "fold induction at 0.1 µM", "setting": "[2]; Homo sapiens, MCF7, isolated compounds at 100 nM, DMSO set to 1", "result": "2.1 ± 0.4"}, {"measurement": "ERE-luciferase induction in MCF-7 cells (in words)", "setting": "[2]", "result": "showed induction of ERE-luciferase"}, {"measurement": "IC50 ERα", "setting": "ERα [8]", "result": "very weak affinity for ERα"}]}]}
